Experimental data published in EP0430029A2, “Pyridin-2,4- and 2,5-dicarboxylic acid diamides, process for their preparation and their use” (HOECHST AKTIENGESELLSCHAFT, priority 1989, dated 1991).

System: durch CCl₄ induzierte Leberfibrose in Ratten
Assay: CCl₄-induced liver fibrosis in rats, 8-week treatment (liver hydroxyproline, serum procollagen III peptide, serum bilirubin)
Format: in vivo
Conditions: 8 weeks
Description: Zum Nachweis der effektiven Hemmung der Prolin- und Lysinhydroxylase durch die erfindungsgemäßen Verbindungen wurden die Hydroxyprolin-Konzentrationen in der Leber und die Prokollagen-III-Peptid-Konzentrationen im Serum von • a) unbehandelten Ratten (Kontrolle) • b) Ratten, denen Tetrachlorkohlenstoff verabreicht wurde (CCl₄-Kontrolle) • c) Ratten, denen zunächst CCl₄ und anschließend eine erfindungsgemäße Verbindung verabreicht wurde gemessen (diese Testmethode wird beschrieben von Rouiller, C., experimental toxic injury of the liver; in The Liver, C. Rouiller, Vol. 2, S. 335-476, New York, Academic Press, 1964).
Die Wirkstärke der erfindungsgemäßen Verbindungen wurde als prozentuale Hemmung der Leber-Hydroxyprolin- und Prokollagen-III-Peptidsynthese nach oraler Gabe im Vergleich zu Kontrolltieren, denen nur Tetrachlorkohlenstoff verabreicht wurde (CCl₄-Kontrolle), bestimmt. Die Ergebnisse sind in Tabelle 1 aufgeführt. Tabelle 1

`CC(=O)NNC(=O)c1ccnc(C(=O)NNC(C)=O)c1` [Example 1, Pyridin-2,4-dicarbonsäuredi-(methylcarbonylhydrazid)] was tested, and the Bilirubin (Bilirubin in Serum (total), rats given CCl₄ then compound, daily oral dose 50 mg/kg) was 3,0 µM, the Hyp (Hydroxyprolin Gehalt in der Leber, rats given CCl₄ then compound, daily oral dose 50 mg/kg) was 0,181 µg/ml and the PIIIP (Prokollagen III N-peptid im Serum, rats given CCl₄ then compound, daily oral dose 50 mg/kg) was 29 ng/mL. For the same molecule, the “Hyp Zunahme (absolut) gegen Kontrolle” value (liver hydroxyproline, absolute increase versus untreated control, 50 mg/kg oral daily) was 0,125 µg/ml, the “Hyp prozentuale Abnahme gegen CCl₄-Behandlung” value (liver hydroxyproline, 50 mg/kg oral daily) was 27% and the “Mittelwert: Gesamtgehalt an Bilirubin, PIIIP und Hyp, % Abweichung” value (mean of the percent decreases of bilirubin, PIIIP and Hyp versus CCl₄ treatment, 50 mg/kg oral daily) was “(33 ± 13 %)”. For the same molecule, the “PIIIP Zunahme (absolut) gegen Kontrolle” value (serum procollagen III N-peptide, absolute increase versus untreated control, 50 mg/kg oral daily) was 18 ng/mL, the “PIIIP prozentuale Abnahme gegen CCl₄-Behandlung” value (serum procollagen III N-peptide, 50 mg/kg oral daily) was 14% and the “Bilirubin Zunahme (absolut) gegen Kontrolle” value (serum total bilirubin, absolute increase versus untreated control, 50 mg/kg oral daily) was 1,1 µM. For the same molecule, the “Bilirubin prozentuale Abnahme gegen CCl₄-Behandlung” value (serum total bilirubin, 50 mg/kg oral daily) was 58%.
